From US20090117083A1, “IMMUNOMODULATORY ALKALOIDS” (M N L PHARMA LIMITED, priority 2004, published 2009)
Where two headings read alike, the source gives them in different places.

What was measured:
α-D-mannosidase = molecular target: T1, α-D-mannosidase (Canavalia ensiformis, UniProt C0HJB3); assay: Glycosidase inhibition: α-D-mannosidase; format: biochemical, Jack beans (Canavalia ensiformis)
T1 construct: purchased Sigma
Procedure: All enzymes were purchased from Sigma, as were the appropriate p-nitrophenyl substrates. Assays were carried out in microtitre plates. Enzymes were assayed in 0.1M citric acid/0.2M di-sodium hydrogen phosphate (McIlvaine) buffers at the optimum pH for the enzyme. All assays were carried out at 20° C.
Endpoint absorbances were read at 405 nm with a Biorad microtitre plate reader (Benchmark). Water was substituted for the inhibitors in the blanks.

α-D-glucosidase [1] = assay: Glycosidase inhibition: α-D-glucosidase, Bacillus; format: biochemical, Bacillus stearothermophilus; settings: 1 mg/ml
Procedure: (§1) All enzymes were purchased from Sigma, as were the appropriate p-nitrophenyl substrates. Assays were carried out in microtitre plates. Enzymes were assayed in 0.1M citric acid/0.2M di-sodium hydrogen phosphate (McIlvaine) buffers at the optimum pH for the enzyme. All assays were carried out at 20° C. For screening assays the incubation assay consisted of 10 μl of enzyme solution, 10 μl of inhibitor solution (made up in water) and 50 μl of the appropriate 5 mM p-nitrophenyl substrate (3.57 mM final conc.) made up in McIlvaine buffer at the optimum pH for the enzyme.
(§2) The reactions were stopped with 0.4M glycine (pH 10.4) during the exponential phase of the reaction, which was determined at the beginning of the assay using blanks with water, which were incubated for a range of time periods to measure the reaction rate using 5 mM substrate solution. Endpoint absorbances were read at 405 nm with a Biorad microtitre plate reader (Benchmark). Water was substituted for the inhibitors in the blanks.

α-D-glucosidase [2] = molecular target: T2, α-D-glucosidase (Oryza sativa subsp. japonica, UniProt Q653V7); assay: Glycosidase inhibition: α-D-glucosidase, rice; format: biochemical, rice (Oryza sativa); settings: 1 mg/ml
T2 construct: purchased Sigma
T2 sequence (Q653V7 34-885): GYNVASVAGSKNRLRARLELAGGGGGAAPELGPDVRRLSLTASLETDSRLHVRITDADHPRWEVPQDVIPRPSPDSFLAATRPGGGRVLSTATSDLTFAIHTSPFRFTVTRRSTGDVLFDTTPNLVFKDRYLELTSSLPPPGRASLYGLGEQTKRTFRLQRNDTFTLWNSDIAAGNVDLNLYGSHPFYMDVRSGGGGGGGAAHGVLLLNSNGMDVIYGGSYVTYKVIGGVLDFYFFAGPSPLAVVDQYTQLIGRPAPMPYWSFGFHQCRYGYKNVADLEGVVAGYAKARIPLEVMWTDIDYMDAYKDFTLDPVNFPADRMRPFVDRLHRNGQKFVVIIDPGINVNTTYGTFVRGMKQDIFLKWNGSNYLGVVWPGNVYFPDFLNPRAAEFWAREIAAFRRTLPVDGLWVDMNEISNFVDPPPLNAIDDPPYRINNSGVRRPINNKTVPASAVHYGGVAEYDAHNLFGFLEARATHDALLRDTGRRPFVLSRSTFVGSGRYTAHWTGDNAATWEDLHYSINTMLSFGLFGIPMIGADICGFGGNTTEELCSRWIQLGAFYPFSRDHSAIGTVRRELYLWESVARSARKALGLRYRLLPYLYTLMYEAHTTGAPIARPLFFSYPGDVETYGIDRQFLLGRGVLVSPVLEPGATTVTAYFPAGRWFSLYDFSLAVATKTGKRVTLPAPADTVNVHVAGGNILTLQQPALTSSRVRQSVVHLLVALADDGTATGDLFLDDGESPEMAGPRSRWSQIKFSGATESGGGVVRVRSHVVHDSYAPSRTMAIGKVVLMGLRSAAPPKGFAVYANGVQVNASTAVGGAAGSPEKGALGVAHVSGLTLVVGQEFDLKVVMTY
Procedure: as §1, §2

α-D-galactosidase = molecular target: T3, α-D-galactosidase (Coffea arabica, UniProt Q42656); assay: Glycosidase inhibition: α-D-galactosidase; format: biochemical, Green coffee beans (Coffea sp.); settings: 1 mg/ml
T3 construct: purchased Sigma
T3 sequence (Q42656 16-378): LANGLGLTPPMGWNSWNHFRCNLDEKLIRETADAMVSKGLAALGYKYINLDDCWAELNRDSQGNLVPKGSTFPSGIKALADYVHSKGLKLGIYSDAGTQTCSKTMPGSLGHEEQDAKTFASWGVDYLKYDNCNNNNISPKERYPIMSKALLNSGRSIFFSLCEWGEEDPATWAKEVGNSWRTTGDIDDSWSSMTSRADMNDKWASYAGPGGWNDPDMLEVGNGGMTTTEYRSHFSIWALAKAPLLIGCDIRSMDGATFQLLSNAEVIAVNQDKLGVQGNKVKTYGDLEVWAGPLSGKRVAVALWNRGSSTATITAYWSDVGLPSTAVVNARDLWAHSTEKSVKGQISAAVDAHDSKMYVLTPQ
Procedure: as §1, §2

[3] = tested on: Na^+-dependent D-glucose uptake; assay: Na+-dependent D-glucose uptake into intestinal brush border membrane vesicles; format: biochemical, ovine
[4] = molecular target: T4, rabbit small intestine sucrase (Oryctolagus cuniculus, UniProt P07768); assay: Inhibition of rabbit small intestine sucrase; format: biochemical; settings: 700 μM
T4 construct: from tissue; host or cells: rabbit small intestine
T4 sequence (P07768 1008-1827 limits assumed): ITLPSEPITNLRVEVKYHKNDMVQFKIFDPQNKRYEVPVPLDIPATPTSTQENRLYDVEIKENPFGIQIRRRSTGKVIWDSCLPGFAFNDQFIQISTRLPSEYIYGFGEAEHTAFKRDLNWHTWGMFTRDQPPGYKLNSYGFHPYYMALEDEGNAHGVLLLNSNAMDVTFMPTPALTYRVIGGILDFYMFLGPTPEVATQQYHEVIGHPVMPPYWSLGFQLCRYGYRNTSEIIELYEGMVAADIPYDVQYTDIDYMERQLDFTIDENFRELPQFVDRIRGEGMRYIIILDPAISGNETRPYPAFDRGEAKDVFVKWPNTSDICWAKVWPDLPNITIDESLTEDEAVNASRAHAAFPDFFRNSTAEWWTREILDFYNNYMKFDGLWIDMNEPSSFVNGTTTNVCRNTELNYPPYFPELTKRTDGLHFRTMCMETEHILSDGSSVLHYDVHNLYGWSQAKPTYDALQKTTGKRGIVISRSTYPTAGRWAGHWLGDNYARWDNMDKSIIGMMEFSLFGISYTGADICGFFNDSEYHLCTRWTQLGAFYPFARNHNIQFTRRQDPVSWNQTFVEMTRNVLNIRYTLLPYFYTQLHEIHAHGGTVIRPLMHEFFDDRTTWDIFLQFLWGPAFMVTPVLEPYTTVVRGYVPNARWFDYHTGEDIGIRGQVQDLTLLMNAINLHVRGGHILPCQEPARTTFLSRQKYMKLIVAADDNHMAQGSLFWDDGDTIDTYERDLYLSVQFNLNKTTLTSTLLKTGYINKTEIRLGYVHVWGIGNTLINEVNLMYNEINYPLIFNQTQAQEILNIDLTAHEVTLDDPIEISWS
T4 sequence (P07768 2-1007 partner limits assumed): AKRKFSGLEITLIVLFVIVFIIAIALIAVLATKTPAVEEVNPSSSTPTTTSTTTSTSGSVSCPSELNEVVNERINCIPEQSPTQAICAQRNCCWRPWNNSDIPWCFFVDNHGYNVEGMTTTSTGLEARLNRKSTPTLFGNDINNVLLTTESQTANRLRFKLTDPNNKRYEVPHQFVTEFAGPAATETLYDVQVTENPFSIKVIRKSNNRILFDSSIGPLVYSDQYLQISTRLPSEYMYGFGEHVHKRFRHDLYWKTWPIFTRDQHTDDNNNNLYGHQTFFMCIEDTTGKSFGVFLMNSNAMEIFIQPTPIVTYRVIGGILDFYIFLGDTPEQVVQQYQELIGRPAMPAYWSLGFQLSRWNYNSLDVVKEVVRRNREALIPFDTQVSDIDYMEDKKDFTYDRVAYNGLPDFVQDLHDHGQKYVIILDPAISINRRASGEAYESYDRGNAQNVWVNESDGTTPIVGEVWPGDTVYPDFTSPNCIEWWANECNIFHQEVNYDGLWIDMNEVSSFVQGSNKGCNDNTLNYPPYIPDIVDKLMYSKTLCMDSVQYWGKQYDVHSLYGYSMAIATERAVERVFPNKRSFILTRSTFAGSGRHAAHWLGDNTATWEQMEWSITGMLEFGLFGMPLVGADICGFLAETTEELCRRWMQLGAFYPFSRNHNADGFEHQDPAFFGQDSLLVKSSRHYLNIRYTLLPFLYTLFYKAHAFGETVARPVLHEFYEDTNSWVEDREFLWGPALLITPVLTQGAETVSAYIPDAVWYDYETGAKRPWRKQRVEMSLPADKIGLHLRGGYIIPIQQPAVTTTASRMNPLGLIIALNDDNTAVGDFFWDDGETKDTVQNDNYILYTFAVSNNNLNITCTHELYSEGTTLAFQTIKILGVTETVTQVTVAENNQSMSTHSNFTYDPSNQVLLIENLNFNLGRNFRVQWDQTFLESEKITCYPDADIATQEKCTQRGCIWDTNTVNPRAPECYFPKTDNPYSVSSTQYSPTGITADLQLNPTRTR

[5] = molecular target: T5, rabbit small intestine lactase (Oryctolagus cuniculus, UniProt P09849); assay: Inhibition of rabbit small intestine lactase; format: biochemical
T5 construct: from tissue; host or cells: rabbit small intestine

β-D-galactosidase = assay: Glycosidase inhibition: β-D-galactosidase; format: biochemical, Bovine; settings: 1 mg/ml
Procedure: as §1, §2

α-L-fucosidase = molecular target: T6, α-L-fucosidase (Bos taurus, UniProt Q2KIM0); assay: Glycosidase inhibition: α-L-fucosidase; format: biochemical, Bovine; settings: 1 mg/ml
T6 construct: purchased Sigma
T6 sequence (Q2KIM0 23-468): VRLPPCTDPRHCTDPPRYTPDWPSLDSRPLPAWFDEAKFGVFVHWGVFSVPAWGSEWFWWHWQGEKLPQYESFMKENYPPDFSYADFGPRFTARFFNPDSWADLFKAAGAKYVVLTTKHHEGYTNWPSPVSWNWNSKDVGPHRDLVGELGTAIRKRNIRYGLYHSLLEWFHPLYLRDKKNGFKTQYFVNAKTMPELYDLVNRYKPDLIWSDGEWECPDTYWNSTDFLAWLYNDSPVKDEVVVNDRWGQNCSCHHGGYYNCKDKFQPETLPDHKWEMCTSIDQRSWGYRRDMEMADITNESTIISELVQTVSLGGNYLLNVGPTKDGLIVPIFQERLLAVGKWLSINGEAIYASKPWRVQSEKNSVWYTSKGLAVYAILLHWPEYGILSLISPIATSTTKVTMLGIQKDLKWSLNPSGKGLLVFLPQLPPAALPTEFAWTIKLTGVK
Procedure: as §1, §2

Naringinase = assay: Glycosidase inhibition: Naringinase; format: biochemical, Penecillium decumbens; settings: 1 mg/ml
Procedure: as §1, §2

β-D-glucosidase = assay: Glycosidase inhibition: β-D-glucosidase, almond; format: biochemical, Almonds (Prunus sp.)
Procedure: as §1, §2

spleen cells = assay: Cytokine modulation in spleen cells (IFN-γ); format: cell-based, BALB/c mice; settings: for IFN-γ: Table 3.2
Procedure: BALB/c male and female mice bred and maintained at the University of Strathclyde under conventional conditions were used at varying age.
Cells suspensions were prepared by using the end of a syringe and grinding the spleen through a wire mesh. The cell suspension was then centrifuged at 1000 rpm for 5 minutes. To remove the erythrocytes, the cell pellet was resuspended in Boyle's solution (Tris 0.17M & Ammonium Chloride 0.16M) and centrifuged again for 5 minutes. The pellet was then washed in medium a further two times, then resuspended in 3 mls medium. A cell count was then carried out.
All spleen cell experiments were carried out in 96-well tissue culture plates. […] Unstimulated wells contained 100 μl of cells and 100 μl of medium. The stimulated wells contained 100 μl of cells plus 50 μl of LPS at 1 μg/ml or 50 μl anti-CD3 at 0.5 μg/ml and 50 μl of medium. The remaining wells contained 100 μl cells, 5 μl of MNLP compound and either 50 μl of anti-CD3 or medium alone.
The appropriate Mabs and standards were used according to the protocol described for IL-12 (described in Example 1, above).

[6] = molecular target: T7, rabbit small intestine trehalase (Oryctolagus cuniculus, UniProt P19813); assay: Inhibition of rabbit small intestine trehalase; format: biochemical
T7 construct: from tissue; host or cells: rabbit small intestine

α-D-glucosidase [7] = molecular target: T8, α-D-glucosidase (Saccharomyces cerevisiae, UniProt P53341); assay: Glycosidase inhibition (p-nitrophenyl substrate): α-D-glucosidase, yeast; format: biochemical, Saccharomyces cerevisiae (Baker's yeast); settings: for inhibition at 1000 µg/mL: 1 mg/ml
T8 construct: purchased Sigma
T8 sequence (P53341 whole entry): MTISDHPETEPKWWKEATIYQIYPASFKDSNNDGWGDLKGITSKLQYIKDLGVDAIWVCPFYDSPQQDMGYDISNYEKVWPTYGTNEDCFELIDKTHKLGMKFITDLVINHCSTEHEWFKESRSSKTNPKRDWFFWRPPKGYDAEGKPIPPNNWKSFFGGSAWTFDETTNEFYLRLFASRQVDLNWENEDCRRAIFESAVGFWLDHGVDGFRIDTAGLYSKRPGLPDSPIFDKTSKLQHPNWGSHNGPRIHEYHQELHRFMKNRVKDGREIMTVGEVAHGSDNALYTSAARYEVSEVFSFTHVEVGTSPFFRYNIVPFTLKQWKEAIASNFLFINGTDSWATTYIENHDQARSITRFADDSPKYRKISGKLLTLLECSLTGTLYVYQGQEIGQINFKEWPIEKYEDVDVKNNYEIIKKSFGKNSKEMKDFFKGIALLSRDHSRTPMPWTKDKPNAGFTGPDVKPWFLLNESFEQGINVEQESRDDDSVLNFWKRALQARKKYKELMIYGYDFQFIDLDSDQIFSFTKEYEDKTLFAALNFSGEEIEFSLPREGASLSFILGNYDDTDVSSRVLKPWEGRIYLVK
Procedure: as §1, §2

[8] = tested on: N-acetyl-β-D-glucosaminidase; assay: Glycosidase inhibition: N-acetyl-β-D-glucosaminidase; format: biochemical, Bovine; settings: 1 mg/ml
Procedure: as §1, §2

[9] = molecular target: rabbit gut mucosa α-D-glucosidase; assay: Inhibition of rabbit gut mucosa α-D-glucosidase; format: biochemical
B16-F10 tumour cells = assay: Control of lung metastasis in mice (B16-F10); format: in vivo, C57/bl6 mice; settings: 50 mg/kg s/c on days 2 and 4; lungs on day 14
Procedure: Mice (C57/bl6 under i/p ketamine anaesthesia) were challenged i/v (tail vein) with 5×10^4 B16-F10 tumour cells in a final volume of 100 μl per mouse on day 0. Test compounds (50 mg/kg in 200 μl sterile non-pyrogenic saline) were administered sic (right flank) on days 2 and 4. On day 14 the mice were sacrifices and the lungs dissected and stained in Indian ink solution (150 ml bidistilled water, 30 ml India Ink, 4 drops NH4OH) for 10 minutes then fixed for at least 24 hr in Fakete's solution (90 ml 37% formaldehyde, 900 ml 70% EtOH and 45 ml glacial acetic acid). The metastases in the stained and fixed lungs could then be visualized, counted and photographed.

dendritic cells = assay: Induction of IL-12 secretion in dendritic cells (ELISA); format: cell-based, BALB/c mice; settings: 50 μg/ml
B16G/F10 melanoma cells = assay: B16/F10 melanoma lung colonies in mice; format: in vivo, C57BL/6 mice
Procedure: There were 5 treatment groups in the study, with 6 mice arbitrarily allocated to each group. The treatment groups were as follows:
The dose volume was the daily intake for all animals. Test substances were administered to mice in Groups 2, 3, 4 and 5, as solutions in sterile water for 41 h 32 min prior to tumour cell injection (Day 0 is the day of tumour cell injection).
Mice were injected intravenously, via a tail vein, with 0.1 ml of a suspension of B16G/F10 melanoma cells (approximately 1×10^5 cells/mouse) on Day 0.
All dosing solutions were prepared on the first day of dosing (Day −2) and were kept at room temperature.
Mice: Female C57BL/6 mice were supplied and delivered by Charles River UK Limited. The animals were approximately 6-8 weeks of age on arrival. The animals were acclimatized for 29 days prior to the start of the study, and the body weights at the start of dosing were in the range 18-23 g. During the study, the animals were housed in groups of up to 6 in pediatric filter-topped cages with sawdust bedding (autoclaved for sterility). The room and cages were cleaned at regular intervals each week to maintain hygiene. The mice were fed an expanded rodent diet of RM1(E) SQC (batch number 3822; Special Diets Services, Witham, UK) ad libitum and allowed access to sterilized water (N.V. Nutricia, Zoetermeer, The Netherlands). For Groups 2, 3, 4 and 5, the drinking water also contained the appropriate level of test substance for the duration of the dosing period. […] During the acclimatization and study period the temperature range in the rooms was 18-22° C. and the humidity range was 44-79%.
Tumour challenge: B18F10 murine tumour cells (Shrayer D, Bogaars H. Hearing V. J. Maizel A. & Wanebo H. Further characterization of a clinically relevant model of melanoma metastasis and an effective vaccine. Cancer Immunology, Immunotherapy 1995: 40; 277-282) were harvested from sub-confluent cultures growing in vitro, using minimum trypsination. They were washed in sterile phosphate buffered saline (PBS) and the number of viable cells determined. Cells were resuspended in sterile PBS at a concentration of […]. The mice were intravenously injected, via a tail vein, with 0.1 ml of cell suspension (i.e. approximately 1×10^5 cells/mouse) on Day 0. The mice were examined daily for signs of laboured breathing or distress due to extensive metastatic disease. Mice were exposed to the appropriate test substance for 41 h 32 min prior to tumour cell injection (from Day −2 to Day 0). Following tumour cell implant, the test substances were removed, and animals in all groups received drinking water alone for the remainder of the study.
Sampling and analysis: The animals were terminated on Day 21 (21 days after injection of the tumour cells). Blood samples were taken from 3 mice from each group on the day of termination. Animals were anaesthetized with carbon dioxide and blood samples of maximal volume taken by cardiac puncture and collected in plain tubes. Samples were left to clot at room temperature for a minimum of 1 h prior to serum removal, Serum samples were stored at approximately −70° C. prior to analysis. Immediately after performing the bleeds, the spleens were removed from the 3 selected mice. The spleens from these mice were pooled in a petri dish with approximately 3-5 ml of RPMI 1640 tissue culture medium (batch number 3092202; Invitrogen, Paisley, UK) containing 0.52% penicillin/streptomycin (Pen/Strep; batch number 44K2412; Sigma Aldrich, Poole, UK) prior to splenocyte isolation. The spleens from each group were placed in a glass homogeniser with an additional 10-15 ml of medium and homogenised until opaque. The suspension was then placed in a 50 ml centrifuge tube. On occasions when there was significant cell debris, this was allowed to settle before removing the suspension and placing in a fresh tube. The homogenate was then centrifuged at approximately 200×‘g’ for 5 min at approximately 4° C.

[10] = read-out: % inhibition, mannosidase

T1 sequence (C0HJB3 whole entry): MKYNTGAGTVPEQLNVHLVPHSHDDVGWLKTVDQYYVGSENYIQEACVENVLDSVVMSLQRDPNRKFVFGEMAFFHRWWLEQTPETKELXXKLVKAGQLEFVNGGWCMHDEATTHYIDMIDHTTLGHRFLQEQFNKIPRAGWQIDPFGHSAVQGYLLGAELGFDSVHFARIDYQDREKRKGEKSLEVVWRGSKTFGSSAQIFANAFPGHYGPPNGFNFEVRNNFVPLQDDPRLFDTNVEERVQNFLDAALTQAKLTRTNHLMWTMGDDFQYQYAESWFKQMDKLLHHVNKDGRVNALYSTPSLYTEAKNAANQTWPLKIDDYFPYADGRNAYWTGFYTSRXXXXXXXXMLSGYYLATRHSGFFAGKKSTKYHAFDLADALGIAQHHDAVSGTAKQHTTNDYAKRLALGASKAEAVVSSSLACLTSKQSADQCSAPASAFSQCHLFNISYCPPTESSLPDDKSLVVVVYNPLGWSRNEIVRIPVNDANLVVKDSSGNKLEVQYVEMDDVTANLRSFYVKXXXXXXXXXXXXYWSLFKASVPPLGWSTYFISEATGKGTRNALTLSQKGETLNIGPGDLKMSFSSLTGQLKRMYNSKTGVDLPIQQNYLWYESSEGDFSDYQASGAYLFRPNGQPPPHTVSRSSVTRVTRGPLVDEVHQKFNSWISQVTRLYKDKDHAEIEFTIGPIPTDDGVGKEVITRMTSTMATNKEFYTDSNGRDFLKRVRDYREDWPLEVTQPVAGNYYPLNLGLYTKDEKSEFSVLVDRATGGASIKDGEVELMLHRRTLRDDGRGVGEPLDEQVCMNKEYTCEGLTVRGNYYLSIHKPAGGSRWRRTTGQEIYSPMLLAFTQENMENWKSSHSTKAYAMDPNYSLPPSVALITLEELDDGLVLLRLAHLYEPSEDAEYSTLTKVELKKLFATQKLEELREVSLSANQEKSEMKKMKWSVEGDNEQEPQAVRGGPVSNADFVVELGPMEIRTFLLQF

O[C@H]1[C@H](O)[C@@H](O)CN2CC[C@H](O)[C@H]12 [Castanospermine (20), Castanospermine, reference compound]
inhibition at 1000 µg/mL (α-D-mannosidase; [10]): 9%
% inhibition, gluc (Bacillus) (α-D-glucosidase [1]): 6%
inhibition at 1000 µg/mL (α-D-glucosidase [2]; read-out: % inhibition, gluc (rice)): 77%
inhibition at 1000 µg/mL (α-D-galactosidase; first galactosidase line, read-out: % inhibition, galactosidase): -3%
Glucose uptake ([3]; initial rate, competition with labelled D-glucose, control 240): 225 pmol/s/mg
glucose transport, effect ([3]; versus control): slightly inhibited
inhibition of rabbit small intestine sucrase [4]: inhibited
inhibition at 700 µM [5]: > 50%
% inhibition, galactosidase (β-D-galactosidase; second galactosidase line): 16%
inhibition at 1000 µg/mL (α-L-fucosidase; read-out: % inhibition, fucosidase): 3%
% inhibition, Naringinase (Naringinase): 39%
Ki (β-D-glucosidase): 9 µM
% inhibition, glucosidase (β-D-glucosidase; 1 mg/ml): 88%
IFN-γ secretion/production in splenocytes (spleen cells): inhibits
IFN-γ (spleen cells; + αCD3): 9.0 ng/mL
IFN-γ (spleen cells; treatment alone): <1.0 ng/mL
inhibition at 700 µM [6]: > 50%
inhibition of yeast α-D-glucosidase (α-D-glucosidase [7]; 800 μM): not being inhibitory
inhibition at 1000 µg/mL (α-D-glucosidase [7]; read-out: % inhibition, gluc (yeast)): -8%
% inhibition, N-acetyl-β-gluc [8]: 16%
IC50 [9]: 8 µM

OCCN1[C@H](CO)[C@@H](O)[C@H](O)[C@H]1CO [N-hydroxyethyl DMDP, N-hydroxyethyl-2,5-dihydroxymethyl-3,4-dihydroxypyrrolidine]
inhibition at 1000 µg/mL (α-D-mannosidase; read-out: % inhibition, α-mannosidase): 11%
% inhibition, α-gluc (Bacillus) (α-D-glucosidase [1]): 85%
inhibition at 1000 µg/mL (α-D-glucosidase [2]; read-out: % inhibition, α-gluc (rice)): 43%
Metastatic morphology (B16-F10 tumour cells): Metastasis restricted to apical tip of lung
inhibition at 1000 µg/mL (α-D-galactosidase; read-out: % inhibition, α-galactosidase): 7%
% inhibition, β-galactosidase (β-D-galactosidase): 73%
inhibition at 1000 µg/mL (α-L-fucosidase; read-out: % inhibition, α-fucosidase): -4%
% inhibition, Naringinase (Naringinase): 22%
% inhibition, β-glucosidase (β-D-glucosidase; 1 mg/ml): 64%
inhibition at 1000 µg/mL (α-D-glucosidase [7]; read-out: % inhibition, α-gluc (yeast)): 56%
% inhibition, N-acetyl-β-gluc [8]: 13%

O[C@H]1[C@H]2[C@H](O)CCCN2C[C@H]1O [Swainsonine (4), Swainsonine, reference compound]
inhibition at 1000 µg/mL (α-D-mannosidase; [10]): 74%
induction of IL-12 secretion (dendritic cells): failed to induce IL-12 secretion
Colony Count (B16G/F10 melanoma cells; 3 μg/ml in drinking water before tumour cell injection, Day 21, mean ± s.e.m.): 21.33 ± 4.11
% Reduction (B16G/F10 melanoma cells; 3 μg/ml in drinking water, versus vehicle): 69%
